For 34 compounds, IC50 results are on record in patent US9708311B2, “Benzimidazole derivatives as EP4 antagonists” (BAYER PHARMA AKTIENGESELLSCHAFT, priority 2012, dated 2017).

The term pIC50 denotes the negative decadic logarithm of the IC50, by convention in mol/L.

For this test, the target named is human EP4 receptor (Homo sapiens (Human), UniProt P35408). Put plainly: Test for antagonism of the human EP4 receptor signal (cAMP HTRF). The note with it: cells expressing hEP4, PGE2 at EC80 (0.4 nM), cAMP TR-FRET; read-out: Antagonism hEP4 IC50. Format: cell-based. The method in brief: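 Antagonism of PGE2-stimulated cAMP formation in hEP4-R cells with IBMX present. After lysis, cAMP measured by competitive TR-FRET (Eu cryptate anti-cAMP antibody vs cAMP-d2), 20 min at room temperature. Read-out is the 665/620 nm emission ratio; antagonism appears as restored FRET signal.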
Sequence of human EP4 receptor (P35408 whole entry): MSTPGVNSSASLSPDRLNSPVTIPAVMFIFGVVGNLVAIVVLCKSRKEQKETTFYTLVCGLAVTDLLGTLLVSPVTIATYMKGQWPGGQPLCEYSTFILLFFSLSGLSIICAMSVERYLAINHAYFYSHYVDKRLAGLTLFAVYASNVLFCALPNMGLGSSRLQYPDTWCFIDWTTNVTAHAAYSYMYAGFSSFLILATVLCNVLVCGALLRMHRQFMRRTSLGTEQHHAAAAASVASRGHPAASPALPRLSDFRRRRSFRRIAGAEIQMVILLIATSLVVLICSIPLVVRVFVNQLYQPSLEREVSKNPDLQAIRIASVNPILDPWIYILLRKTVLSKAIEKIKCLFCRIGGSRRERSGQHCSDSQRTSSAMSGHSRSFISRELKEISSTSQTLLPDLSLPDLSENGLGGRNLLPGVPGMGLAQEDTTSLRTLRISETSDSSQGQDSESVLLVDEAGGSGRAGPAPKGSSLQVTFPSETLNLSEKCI
(Time-resolved FRET reads energy transfer from a long-lived donor to a nearby acceptor.)

Structures are written as SMILES. pIC50: −log10 of the molar value.

Consider `CCn1c2ccccc2c2cc(-c3nc4cc(C(=O)NCC(F)(F)F)ccc4n3CC3CC3)ccc21` [Example 27, 1-(Cyclopropylmethyl)-2-(9-ethyl-9H-carbazol-3-yl)-N-(2,2,2-trifluoroethyl)-1H-benzimidazole-5-carboxamide], for which the pIC50 was 6.93.
The same measure for `CCn1c2ccccc2c2cc(-c3nc4cc(-c5nnn[nH]5)ccc4n3CCOC)ccc21` [Example 45, 9-Ethyl-3-[1-(2-methoxyethyl)-5-(1H-tetrazol-5-yl)-1H-benzimidazol-2-yl]-9H-carbazole]: 7.87; for `CCn1c2ccc(-c3nc4cc(C(=O)O)ccc4n3CC3CC3)cc2c2ccncc21` [Example 108, 1-(Cyclopropylmethyl)-2-(9-ethyl-9H-beta-carbolin-6-yl)-1H-benzimidazole-5-carboxylic acid]: 6.92; for `CCn1c2ccccc2c2cc(-c3nc4cc(C(=O)N(C)C)ccc4n3CC3CC3)ccc21` [Example 25, 1-(Cyclopropylmethyl)-2-(9-ethyl-9H-carbazol-3-yl)-N,N-dimethyl-1H-benzimidazole-5-carboxamide]: 7.06.
As to `CCn1c2ccccc2c2cc(-c3nc4cc(C(=O)NS(=O)(=O)Cc5ccccc5)ccc4n3CCOC)ccc21` [Example 55, N-(Benzylsulphonyl)-2-(9-ethyl-9H-carbazol-3-yl)-1-(2-methoxyethyl)-1H-benzimidazole-5-carboxamide], the pIC50 was 6.93.
For `CCn1c2ccc(Cl)cc2c2cc(-c3nc4c(C)c(C(=O)O)ccc4n3CCOC)ccc21` [Example 142, 2-(6-Chloro-9-ethyl-9H-carbazol-3-yl)-1-(2-methoxyethyl)-4-methyl-1H-benzimidazole-5-carboxylic acid], the pIC50 was 8.38.
For the compound `CCn1c2ccccc2c2cc(-c3nc4cc(C(=O)N(C)C)ccc4n3CCOC)ccc21` [Example 83, 2-(9-Ethyl-9H-carbazol-3-yl)-1-(2-methoxyethyl)-N,N-dimethyl-1H-benzimidazole-5-carboxamide], the pIC50 was 6.91.
For `C#CCn1c2ccccc2c2cc(-c3nc4cc(C(=O)O)ccc4n3CCOC)ccc21` [Example 119, 1-(2-Methoxyethyl)-2-[9-(prop-2-yn-1-yl)-9H-carbazol-3-yl]-1H-benzimidazole-5-carboxylic acid], the pIC50 was 7.36.
For `COCCn1c2ccccc2c2cc(-c3nc4cc(C(=O)O)ccc4n3CC3CC3)ccc21` [Example 13, 1-(Cyclopropylmethyl)-2-[9-(2-methoxyethyl)-9H-carbazol-3-yl]-1H-benzimidazole-5-carboxylic acid] the value was 7.74.
Turning to `CCn1c2ccccc2c2cc(-c3nc4cc(C(=O)O)ccc4n3CC3CCCO3)ccc21` (stereo not shown) [Example 133, 2-(9-Ethyl-9H-carbazol-3-yl)-1-(tetrahydrofuran-2-ylmethyl)-1H-benzimidazole-5-carboxylic acid], the pIC50 is 8.15.
Regarding `CCn1c2ccccc2c2cc(-c3nc4cc(C(=O)NS(=O)(=O)C5CC5)ccc4n3CCN(C)C)ccc21` [Example 74, N-(Cyclopropylsulphonyl)-1-[2-(dimethylamino)ethyl]-2-(9-ethyl-9H-carbazol-3-yl)-1H-benzimidazole-5-carboxamide], the pIC50 was 7.06.
The same measure for `C=CCn1c2ccccc2c2cc(-c3nc4cc(C(=O)O)ccc4n3CC3CC3)ccc21` [Example 33, 2-(9-Allyl-9H-carbazol-3-yl)-1-(cyclopropylmethyl)-1H-benzimidazole-5-carboxylic acid]: 7.54; for `CCOC(=O)c1ccc2c(c1)nc(-c1ccc3c(c1)c1ccccc1n3CC)n2CCCOC` [Example 99, Ethyl 2-(9-ethyl-9H-carbazol-3-yl)-1-(3-methoxypropyl)-1H-benzimidazole-5-carboxylate]: 5.77.
On to `CCn1c2ccccc2c2cc(-c3nc4cc(C(=O)N5CCOCC5)ccc4n3CCOC)ccc21` [Example 81, [2-(9-Ethyl-9H-carbazol-3-yl)-1-(2-methoxyethyl)-1H-benzimidazol-5-yl](morpholin-4-yl)-methanone], for which the pIC50 is 6.91.
For `CCn1c2ccccc2c2cc(-c3nc4cc(C(=O)O)ccc4n3CCN(C)C)ccc21` [Example 72, 1-[2-(Dimethylamino)ethyl]-2-(9-ethyl-9H-carbazol-3-yl)-1H-benzimidazole-5-carboxylic acid] the value was 7.08.
Turning to `C=CCn1c(-c2ccc3c(c2)c2ccccc2n3CC)nc2cc(C(=O)OC)ccc21` [Example 1, Methyl 1-allyl-2-(9-ethyl-9H-carbazol-3-yl)-1H-benzimidazole-5-carboxylate], the pIC50 is 5.51.
For `CCn1c2ccccc2c2cc(-c3nc4cc(C(=O)NS(=O)(=O)c5ccc(C)cc5)ccc4n3CCOC)ccc21` [Example 48, 2-(9-Ethyl-9H-carbazol-3-yl)-1-(2-methoxyethyl)-N-[(4-methylphenyl)sulphonyl]-1H-benzimidazole-5-carboxamide] the value was 7.00.
For `CCn1c2ccccc2c2cc(-c3nc4cc(C(=O)O)ccc4n3CC3CC3)cnc21` [Example 14, 1-(Cyclopropylmethyl)-2-(9-ethyl-9H-pyrido[2,3-b]indol-3-yl)-1H-benzimidazole-5-carboxylic acid] the value was 7.48; for `CCOC(=O)c1ccc2c(c1)nc(-c1ccc3c(c1)c1ccccc1n3CC)n2C(C)C` [Example 92, Ethyl 2-(9-ethyl-9H-carbazol-3-yl)-1-isopropyl-1H-benzimidazole-5-carboxylate], 5.10.
Regarding `CCn1c2ccccc2c2cc(-c3nc4cc(C(=O)NS(=O)(=O)Cc5ccc(F)cc5)ccc4n3CCOC)ccc21` [Example 58, 2-(9-Ethyl-9H-carbazol-3-yl)-N-[(4-fluorobenzyl)sulphonyl]-1-(2-methoxyethyl)-1H-benzimidazole-5-carboxamide], the pIC50 is 6.76.
With `CCn1c(-c2ccc3c(c2)c2ccccc2n3CC)nc2cc(C(=O)OC)ccc21` [Example 95, Methyl 1-ethyl-2-(9-ethyl-9H-carbazol-3-yl)-1H-benzimidazole-5-carboxylate], the pIC50 was 5.99.
As to `CCn1c2ccccc2c2cc(-c3nc4cc(C(=O)NS(=O)(=O)Cc5c(C)cccc5Cl)ccc4n3CCOC)ccc21` [Example 67, N-[(2-Chloro-6-methylbenzyl)sulphonyl]-2-(9-ethyl-9H-carbazol-3-yl)-1-(2-methoxy-ethyl)-1H-benzimidazole-5-carboxamide], the pIC50 is 7.43.
Consider `CCn1c2ccccc2c2cc(-c3nc4cc(C(=O)NS(=O)(=O)CC(C)(C)C)ccc4n3CCOC)ccc21` [Example 66, N-[(2,2-Dimethylpropyl)sulphonyl]-2-(9-ethyl-9H-carbazol-3-yl)-1-(2-methoxyethyl)-1H-benzimidazole-5-carboxamide], for which the pIC50 is 7.79.
For `CCn1c2ccccc2c2cc(-c3nc4cc(C(=O)NS(=O)(=O)c5ccccc5)ccc4n3CCOC)ccc21` [Example 50, 2-(9-Ethyl-9H-carbazol-3-yl)-1-(2-methoxyethyl)-N-(phenylsulphonyl)-1H-benzimidazole-5-carboxamide] the value was 7.47.
For the compound `CCn1c2ccccc2c2cc(-c3nc4cc(C(=O)NS(=O)(=O)Cc5c(Cl)cccc5Cl)ccc4n3CCOC)ccc21` [Example 60, N-[(2,6-Dichlorbenzyl)sulphonyl]-2-(9-ethyl-9H-carbazol-3-yl)-1-(2-methoxyethyl)-1H-benzimidazole-5-carboxamide], the pIC50 is 7.70.
With `CCn1c2ccccc2c2cc(-c3nc4cc(C(=O)O)c(F)cc4n3CC3CC3)ccc21` [Example 112, 1-(Cyclopropylmethyl)-2-(9-ethyl-9H-carbazol-3-yl)-6-fluoro-1H-benzimidazole-5-carboxylic acid], the negative-log IC50 (pIC50) is 7.46.
The same measure for `CCn1c2ccccc2c2cc(-c3nc4cc(C(=O)O)c(C)cc4n3CC3CC3)ccc21` [Example 110, 1-(Cyclopropylmethyl)-2-(9-ethyl-9H-carbazol-3-yl)-6-methyl-1H-benzimidazole-5-carboxylic acid]: 5.93.
With `CCn1c2ccccc2c2cc(-c3nc4cc(C(=O)NC)ccc4n3CCOC)ccc21` [Example 41, 2-(9-Ethyl-9H-carbazol-3-yl)-1-(2-methoxyethyl)-N-methyl-1H-benzimidazole-5-carboxamide], the pIC50 was 7.01.
`CCn1c2ccccc2c2cc(-c3nc4cc(-c5noc(=O)[nH]5)ccc4n3CCOC)ccc21` [Example 46, 3-[2-(9-Ethyl-9H-carbazol-3-yl)-1-(2-methoxyethyl)-1H-benzimidazol-5-yl]-1,2,4-oxadiazol-5(4H)-one]: the pIC50 is 7.91.
The same measure for `CCn1c2ccc(-c3nc4cc(C(=O)O)ccc4n3CC3CC3)cc2c2cccnc21` [Example 116, 1-(Cyclopropylmethyl)-2-(9-ethyl-9H-pyrido[2,3-b]indol-6-yl)-1H-benzimidazole-5-carboxylic acid]: 7.65; for `Cn1c2ccccc2c2cc(-c3nc4cc(C(=O)O)ccc4n3CC3CC3)ccc21` [Example 34, 1-(Cyclopropylmethyl)-2-(9-methyl-9H-carbazol-3-yl)-1H-benzimidazole-5-carboxylic acid]: 7.40.
The same measure for `CCn1c2ccccc2c2cc(-c3nc4cc(S(=O)(=O)NC)ccc4n3C)ccc21` [Example 129, 2-(9-Ethyl-9H-carbazol-3-yl)-N,1-dimethyl-1H-benzimidazole-5-sulphonamide]: 6.03; for `CCn1c2ccccc2c2cc(-c3nc4c(C)c(C(=O)O)ccc4n3CCOC)ccc21` [Example 105, 2-(9-Ethyl-9H-carbazol-3-yl)-1-(2-methoxyethyl)-4-methyl-1H-benzimidazole-5-carboxylic acid]: 7.19.
The same measure for `COCCn1c(-c2ccc3c(c2)c2ccccc2n3CC2CCC2)nc2cc(C(=O)O)ccc21` [Example 124, 2-[9-(Cyclobutylmethyl)-9H-carbazol-3-yl]-1-(2-methoxyethyl)-1H-benzimidazole-5-carboxylic acid]: 7.03.
